From patent publication US6987114B1, “Antiviral pyrimidinedione derivatives and process for the preparation thereof” (Samjin Pharmaceutical Co., Ltd, priority 1999, dated 2006)
Converted amounts (≈) assume the structure as drawn. Where two headings read alike, the source gives them in different places.

Columns and labels:
HIV = assay: microbe, parasite or virus in culture; format: cell-based
Procedure: Anti-HIV activity tests in vitro of the compounds according to the present invention were performed as described in J. Med. Chem, 34, 357, 1991. Inhibition by the compounds of virus-induced cytotoxic effect in MT-4 cells was measured as follows.
(§1) MT-4 cells were suspended in culture media at 2.5×10^5 cells/ml and infected with 1000 CCID50 (50% cell culture infective dose) of HIV. Immediately after virus infection, 100 μl of cell suspension was brought into each well of a flat-bottomed microtitray containing various concentrations of the test compounds. After 4 or 5 days incubation at 37° C., efficacy of the compounds was determined by the MTT method. Cytotoxicity of the compounds was assessed in parallel with their antiviral activity, based on viability of mock-infected host cells as determined by the MTT method.

mock-infected MT-4 cells = assay: Cytotoxicity based on viability of mock-infected host cells (MTT method); format: cell-based; conditions: mock-infected MT-4 cells, MTT method, 4 or 5 days at 37° C.
Procedure: as §1

[1] = Human immunodeficiency virus 1, MT4, HIV-infected MT-4 cells, MTT method, 4 or 5 days at 37° C., read-out: ED50 (the source's name)
[2] = Human immunodeficiency virus 1, MT4, read-out: ED50

Row | SMILES | EC50 (HIV; [1]) [µg/mL] | melting point [°C] | CD50 (mock-infected MT-4 cells) [µg/mL] | EC50 (HIV; [2]) [µg/mL]
1 | CCc1c(Sc2cc(C)cc(C)c2)n(Cc2cccc(C#N)c2)c(=O)[nH]c1=O [Example 43, 1-(3-Cyanobenzyl)-5-ethyl-6-(3,5-dimethylphenyl)thio-2,4-pyrimidinedione] |  | 179 to 181 | 1.77 | 0.015 (≈ 0.0383 µM)
2 | Cc1cc(C)cc(Sc2c(C(C)C)c(=O)[nH]c(=O)n2Cc2cccc(C#N)c2)c1 [Example 44, 1-(3-Cyanobenzyl)-5-isopropyl-6-(3,5-dimethylphenyl)thio-2,4-pyrimidinedione] |  | 186 to 188 | 8.88 | 0.008 (≈ 0.0197 µM)
3 | CCc1c(Oc2cc(C)cc(C)c2)n(Cc2cccc(C#N)c2)c(=O)[nH]c1=O [Example 45, 1-(3-Cyanobenzyl)-5-ethyl-6-(3,5-dimethylphenoxy)-2,4-pyrimidinedione] |  | 213 to 214 | >100.00 | 0.061 (≈ 0.162 µM)
4 | Cc1cc(C)cc(Oc2c(C(C)C)c(=O)[nH]c(=O)n2Cc2cccc(C#N)c2)c1 [Example 46, 1-(3-Cyanobenzyl)-5-isopropyl-6-(3,5-dimethylphenoxy)-2,4-pyrimidinedione] |  | 160 to 162 | 9.20 | 0.023 (≈ 0.0591 µM)
5 | CCc1c(C(=O)c2cc(C)cc(C)c2)n(Cc2cccc(C#N)c2)c(=O)[nH]c1=O [Example 47, 1-(3-Cyanobenzyl)-5-ethyl-6-(3,5-dimethylbenzoyl)-2,4-pyrimidinedione] |  | 206 to 207 | 2.53 | 0.003 (≈ 0.00774 µM)
6 | Cc1cc(C)cc(C(=O)c2c(C(C)C)c(=O)[nH]c(=O)n2Cc2cccc(C#N)c2)c1 [Example 48, 1-(3-Cyanobenzyl)-5-isopropyl-6-(3,5-dimethylbenzoyl)-2,4-pyrimidinedione] |  | 202 to 204 | 8.07 | 0.003 (≈ 0.00747 µM)
7 | CCc1c(Sc2cc(C)cc(C)c2)n(Cc2cc(C)cc(C)c2)c(=O)[nH]c1=O [Example 49, 1-(3,5-Dimethylbenzyl)-5-ethyl-6-(3,5-dimethylphenyl)thio-2,4-pyrimidinedione] |  | 180 to 182 | 7.48 | 0.014 (≈ 0.0355 µM)
8 | Cc1cc(C)cc(Cn2c(Sc3cc(C)cc(C)c3)c(C(C)C)c(=O)[nH]c2=O)c1 [Example 50, 1-(3,5-Dimethylbenzyl)-5-isopropyl-6-(3,5-dimethylphenyl)thio-2,4-pyrimidinedione] |  | 164 to 166 | 8.70 | 0.015 (≈ 0.0367 µM)
9 | CCc1c(Oc2cc(C)cc(C)c2)n(Cc2cc(C)cc(C)c2)c(=O)[nH]c1=O [Example 51, 1-(3,5-Dimethylbenzyl)-5-ethyl-6-(3,5-dimethylphenoxy)-2,4-pyrimidinedione] |  | 130 to 132 | 8.01 | 0.13 (≈ 0.343 µM)
10 | Cc1cc(C)cc(Cn2c(Oc3cc(C)cc(C)c3)c(C(C)C)c(=O)[nH]c2=O)c1 [Example 52, 1-(3,5-Dimethylbenzyl)-5-isopropyl-6-(3,5-dimethyl-phenoxy)-2,4-pyrimidinedione] |  | 175 to 177 | 8.20 | 0.098 (≈ 0.25 µM)
11 | CCc1c(C(=O)c2cc(C)cc(C)c2)n(Cc2cc(C)cc(C)c2)c(=O)[nH]c1=O [Example 53, 1-(3,5-Dimethylbenzyl)-5-ethyl-6-(3,5-dimethylbenzoyl)-2,4-pyrimidinedione] |  | 188 to 190 | 2.50 | 0.014 (≈ 0.0359 µM)
12 | Cc1cc(C)cc(Cn2c(C(=O)c3cc(C)cc(C)c3)c(C(C)C)c(=O)[nH]c2=O)c1 [Example 54, 1-(3,5-Dimethylbenzyl)-5-isopropyl-6-(3,5-dimethylbenzoyl)-2,4-pyrimidinedione] |  | 228 to 230 | 7.10 | 0.014 (≈ 0.0346 µM)
13 | CCc1c(Sc2cc(C)cc(C)c2)n(Cc2cc(OC)cc(OC)c2)c(=O)[nH]c1=O [Example 55, 1-(3,5-Dimethoxybenzyl)-5-ethyl-6-(3,5-dimethylphenyl)thio-2,4-pyrimidinedione] | 0.071 (≈ 0.166 µM) | 181 to 183 | 10.8 | 
14 | CCc1c(Oc2cc(C)cc(C)c2)n(Cc2cc(OC)cc(OC)c2)c(=O)[nH]c1=O [Example 57, 1-(3,5-Dimethoxybenzyl)-5-ethyl-6-(3,5-dimethylphenoxy)-2,4-pyrimidinedione] | 1.37 (≈ 3.34 µM) | 154 to 156 | 36.80 | 
15 | CCc1c(Sc2cc(C)cc(C)c2)n(Cc2cc(F)ccc2F)c(=O)[nH]c1=O [Example 67, 1-(2,5-Difluorobenzyl)-5-ethyl-6-(3,5-dimethylphenyl)thio-2,4-pyrimidinedione] | 0.008 (≈ 0.0199 µM) | 214 to 216 | 12.40 | 
16 | Cc1cc(C)cc(Sc2c(C(C)C)c(=O)[nH]c(=O)n2Cc2cc(F)ccc2F)c1 [Example 68, 1-(2,5-Difluorobenzyl)-5-isopropyl-6-(3,5-dimethylphenyl)thio-2,4-pyrimidinedione] | 0.005 (≈ 0.012 µM) | 192 to 194 | 4.15 | 
17 | CCc1c(Oc2cc(C)cc(C)c2)n(Cc2cc(F)ccc2F)c(=O)[nH]c1=O [Example 69, 1-(2,5-Difluorobenzyl)-5-ethyl-6-(3,5-dimethylphenoxy)-2,4-pyrimidinedione] | 0.034 (≈ 0.088 µM) | 231 to 233 | >100.00 | 

Now from value to compound, other results behind:

Row | EC50 (HIV; [1]) [µg/mL] | melting point [°C] | SMILES | CD50 (mock-infected MT-4 cells) [µg/mL] | EC50 (HIV; [2]) [µg/mL]
18 | 0.005 (≈ 0.0125 µM) | 250 to 253 | Cc1cc(C)cc(C(=O)c2c(C(C)C)c(=O)[nH]c(=O)n2Cc2ccccc2C#N)c1 [Example 42, 1-(2-Cyanobenzyl)-5-isopropyl-6-(3,5-dimethylbenzoyl)-2,4-pyrimidinedione] | >100.00 | 
19 | 0.21 (≈ 0.477 µM) | 157 to 160 | COc1cc(Cn2c(Sc3cc(C)cc(C)c3)c(C(C)C)c(=O)[nH]c2=O)cc(OC)c1 [Example 56, 1-(3,5-Dimethoxybenzyl)-5-isopropyl-6-(3,5-dimethyl-phenyl)thio-2,4-pyrimidinedione] | 11.34 | 
20 | 0.51 (≈ 1.2 µM) | 162 to 164 | COc1cc(Cn2c(Oc3cc(C)cc(C)c3)c(C(C)C)c(=O)[nH]c2=O)cc(OC)c1 [Example 58, 1-(3,5-Dimethoxybenzyl)-5-isopropyl-6-(3,5-dimethylphenoxy)-2,4-pyrimidinedione] | >100.00 | 
21 | 0.31 (≈ 0.734 µM) | 208 to 210 | CCc1c(C(=O)c2cc(C)cc(C)c2)n(Cc2cc(OC)cc(OC)c2)c(=O)[nH]c1=O [Example 59, 1-(3,5-Dimethoxybenzyl)-5-ethyl-6-(3,5-dimethylbenzoyl)-2,4-pyrimidinedione] | 69.00 | 
22 | 0.23 (≈ 0.527 µM) | 220 to 222 | COc1cc(Cn2c(C(=O)c3cc(C)cc(C)c3)c(C(C)C)c(=O)[nH]c2=O)cc(OC)c1 [Example 60, 1-(3,5-Dimethoxybenzyl)-5-isopropyl-6-(3,5-dimethyl-benzoyl)-2,4-pyrimidinedione] | 12.09 | 
23 | > 100 | 212 to 213 | CCc1c(Sc2cc(C)cc(C)c2)n(Cc2cc(C(F)(F)F)cc(C(F)(F)F)c2)c(=O)[nH]c1=O [Example 61, 1-[3,5-Bis(trifluoromethyl)benzyl]-5-ethyl-6-(3,5-dimethyl-phenyl)thio-2,4-pyrimidinedione] | >100.00 | 
24 | > 100 | 183 to 185 | Cc1cc(C)cc(Sc2c(C(C)C)c(=O)[nH]c(=O)n2Cc2cc(C(F)(F)F)cc(C(F)(F)F)c2)c1 [Example 62, 1-[3,5-Bis(trifluoromethyl)benzyl]-5-isopropyl-6-(3,5-dimethylphenyl)thio-2,4-pyrimidinedione] | >100.00 | 
25 | > 100 | 183 to 185 | CCc1c(Oc2cc(C)cc(C)c2)n(Cc2cc(C(F)(F)F)cc(C(F)(F)F)c2)c(=O)[nH]c1=O [Example 63, 1-[3,5-Bis(Trifluoromethyl)benzyl]-5-ethyl-6-(3,5-dimethyl-phenoxy)-2,4-pyrimidinedione] | >100.00 | 
26 | > 100 | 182 to 183 | Cc1cc(C)cc(Oc2c(C(C)C)c(=O)[nH]c(=O)n2Cc2cc(C(F)(F)F)cc(C(F)(F)F)c2)c1 [Example 64, 1-[3,5-Bis(Trifluoromethyl)benzyl]-5-isopropyl-6-(3,5-dimethylphenoxy)-2,4-pyrimidinedione] | >100.00 | 
27 | > 100 | 241 to 243 | CCc1c(C(=O)c2cc(C)cc(C)c2)n(Cc2cc(C(F)(F)F)cc(C(F)(F)F)c2)c(=O)[nH]c1=O [Example 65, 1-[3,5-Bis(Trifluoromethyl)benzyl]-5-ethyl-6-(3,5-dimethyl-benzoyl)-2,4-pyrimidinedione] | >100.00 | 
28 | 1.75 (≈ 3.41 µM) | 178 to 180 | Cc1cc(C)cc(C(=O)c2c(C(C)C)c(=O)[nH]c(=O)n2Cc2cc(C(F)(F)F)cc(C(F)(F)F)c2)c1 [Example 66, 1-[3,5-Bis(Trifluoromethyl)benzyl]-5-isopropyl-6-(3,5-dimethyl-benzoyl)-2,4-pyrimidinedione] | 8.14 | 
29 | 0.014 (≈ 0.035 µM) | 214 to 216 | Cc1cc(C)cc(Oc2c(C(C)C)c(=O)[nH]c(=O)n2Cc2cc(F)ccc2F)c1 [Example 70, 1-(2,5-Difluorobenzyl)-5-isopropyl-6-(3,5-dimethylphenoxy)-2,4-pyrimidinedione] | >100.00 | 
